Assay results: the NIST ThermoML archive (doi:10.1016/j.fluid.2019.112263)
Numbers after ± are expanded uncertainties.

Legend:
[1] = 101.33 kPa, Liquid, transient hot wire
[2] = wn = mass fraction of the nth substance listed; conditions: 100 kPa, Liquid, transient hot wire

CCO [ethanol]
thermal conductivity ([1]; 276.51 K): 0.1719 ± 0.0069 W/m/K | thermal conductivity ([1]; 287.55 K): 0.1677 ± 0.0067 W/m/K | thermal conductivity ([1]; 297.25 K): 0.1645 ± 0.0066 W/m/K | thermal conductivity ([1]; 307.16 K): 0.1617 ± 0.0065 W/m/K

CCCCCCCCCC(=O)OC [methyl decanoate] + CCCCCO
thermal conductivity ([2]; 287.96 K, w1 = 0.1941): 0.1495 ± 0.006 W/m/K | thermal conductivity ([2]; 287.96 K, w1 = 0.4008): 0.1482 ± 0.006 W/m/K | thermal conductivity ([2]; 287.97 K, w1 = 0.6035): 0.1467 ± 0.0059 W/m/K | thermal conductivity ([2]; 288 K, w1 = 0.8002): 0.1456 ± 0.0059 W/m/K | thermal conductivity ([2]; 297.72 K, w1 = 0.1941): 0.1477 ± 0.0059 W/m/K | thermal conductivity ([2]; 297.73 K, w1 = 0.4008): 0.1463 ± 0.0059 W/m/K | thermal conductivity ([2]; 297.76 K, w1 = 0.6035): 0.1453 ± 0.0058 W/m/K | thermal conductivity ([2]; 297.85 K, w1 = 0.8002): 0.1433 ± 0.0058 W/m/K | thermal conductivity ([2]; 307.69 K, w1 = 0.8002): 0.1414 ± 0.0057 W/m/K | thermal conductivity ([2]; 307.72 K, w1 = 0.6035): 0.1432 ± 0.0058 W/m/K | thermal conductivity ([2]; 307.74 K, w1 = 0.4008): 0.144 ± 0.0058 W/m/K | thermal conductivity ([2]; 307.77 K, w1 = 0.1941): 0.1451 ± 0.0058 W/m/K | thermal conductivity ([2]; 317.73 K, w1 = 0.4008): 0.142 ± 0.0057 W/m/K | thermal conductivity ([2]; 317.74 K, w1 = 0.8002): 0.1396 ± 0.0056 W/m/K | thermal conductivity ([2]; 317.81 K, w1 = 0.6035): 0.1406 ± 0.0057 W/m/K | thermal conductivity ([2]; 317.86 K, w1 = 0.1941): 0.1433 ± 0.0058 W/m/K | thermal conductivity ([2]; 327.58 K, w1 = 0.4008): 0.1405 ± 0.0057 W/m/K | thermal conductivity ([2]; 327.66 K, w1 = 0.6035): 0.1386 ± 0.0056 W/m/K | thermal conductivity ([2]; 327.75 K, w1 = 0.8002): 0.1366 ± 0.0055 W/m/K | thermal conductivity ([2]; 327.82 K, w1 = 0.1941): 0.1408 ± 0.0057 W/m/K | thermal conductivity ([2]; 337.54 K, w1 = 0.8002): 0.1347 ± 0.0054 W/m/K | thermal conductivity ([2]; 337.6 K, w1 = 0.1941): 0.1391 ± 0.0056 W/m/K | thermal conductivity ([2]; 337.61 K, w1 = 0.6035): 0.1361 ± 0.0055 W/m/K | thermal conductivity ([2]; 337.76 K, w1 = 0.4008): 0.1373 ± 0.0055 W/m/K | thermal conductivity ([2]; 347.58 K, w1 = 0.4008): 0.1356 ± 0.0055 W/m/K | thermal conductivity ([2]; 347.61 K, w1 = 0.8002): 0.1315 ± 0.0053 W/m/K | thermal conductivity ([2]; 347.79 K, w1 = 0.1941): 0.1367 ± 0.0055 W/m/K | thermal conductivity ([2]; 347.85 K, w1 = 0.6035): 0.1336 ± 0.0054 W/m/K | thermal conductivity ([2]; 357.66 K, w1 = 0.4008): 0.1333 ± 0.0054 W/m/K | thermal conductivity ([2]; 357.7 K, w1 = 0.6035): 0.132 ± 0.0053 W/m/K | thermal conductivity ([2]; 357.75 K, w1 = 0.8002): 0.1299 ± 0.0052 W/m/K | thermal conductivity ([2]; 357.76 K, w1 = 0.1941): 0.1345 ± 0.0054 W/m/K

CCCCCCCCCC(=O)OC [methyl decanoate] + CCCCO
thermal conductivity ([2]; 287.9 K, w1 = 0.2001): 0.1497 ± 0.006 W/m/K | thermal conductivity ([2]; 287.95 K, w1 = 0.8003): 0.146 ± 0.0059 W/m/K | thermal conductivity ([2]; 287.98 K, w1 = 0.599): 0.1468 ± 0.0059 W/m/K | thermal conductivity ([2]; 288.35 K, w1 = 0.4002): 0.1476 ± 0.0059 W/m/K | thermal conductivity ([2]; 297.66 K, w1 = 0.4002): 0.1458 ± 0.0059 W/m/K | thermal conductivity ([2]; 297.69 K, w1 = 0.2001): 0.1473 ± 0.0059 W/m/K | thermal conductivity ([2]; 297.81 K, w1 = 0.8003): 0.1436 ± 0.0058 W/m/K | thermal conductivity ([2]; 298 K, w1 = 0.599): 0.1441 ± 0.0058 W/m/K | thermal conductivity ([2]; 307.7 K, w1 = 0.2001): 0.145 ± 0.0058 W/m/K | thermal conductivity ([2]; 307.74 K, w1 = 0.4002): 0.1436 ± 0.0058 W/m/K | thermal conductivity ([2]; 307.81 K, w1 = 0.599): 0.1427 ± 0.0057 W/m/K | thermal conductivity ([2]; 307.86 K, w1 = 0.8003): 0.1412 ± 0.0057 W/m/K | thermal conductivity ([2]; 317.55 K, w1 = 0.2001): 0.1431 ± 0.0058 W/m/K | thermal conductivity ([2]; 317.7 K, w1 = 0.8003): 0.1395 ± 0.0056 W/m/K | thermal conductivity ([2]; 317.74 K, w1 = 0.4002): 0.1418 ± 0.0057 W/m/K | thermal conductivity ([2]; 317.81 K, w1 = 0.599): 0.1403 ± 0.0056 W/m/K | thermal conductivity ([2]; 327.62 K, w1 = 0.2001): 0.1398 ± 0.0056 W/m/K | thermal conductivity ([2]; 327.73 K, w1 = 0.4002): 0.1388 ± 0.0056 W/m/K | thermal conductivity ([2]; 327.78 K, w1 = 0.599): 0.1382 ± 0.0056 W/m/K | thermal conductivity ([2]; 327.78 K, w1 = 0.8003): 0.137 ± 0.0055 W/m/K | thermal conductivity ([2]; 337.59 K, w1 = 0.2001): 0.1379 ± 0.0055 W/m/K | thermal conductivity ([2]; 337.59 K, w1 = 0.4002): 0.1372 ± 0.0055 W/m/K | thermal conductivity ([2]; 337.66 K, w1 = 0.599): 0.136 ± 0.0055 W/m/K | thermal conductivity ([2]; 337.78 K, w1 = 0.8003): 0.1346 ± 0.0054 W/m/K | thermal conductivity ([2]; 347.49 K, w1 = 0.2001): 0.1363 ± 0.0055 W/m/K | thermal conductivity ([2]; 347.58 K, w1 = 0.599): 0.1339 ± 0.0054 W/m/K | thermal conductivity ([2]; 347.73 K, w1 = 0.4002): 0.135 ± 0.0054 W/m/K | thermal conductivity ([2]; 347.8 K, w1 = 0.8003): 0.1318 ± 0.0053 W/m/K | thermal conductivity ([2]; 357.56 K, w1 = 0.2001): 0.1337 ± 0.0054 W/m/K | thermal conductivity ([2]; 357.68 K, w1 = 0.4002): 0.1325 ± 0.0053 W/m/K | thermal conductivity ([2]; 357.71 K, w1 = 0.599): 0.1317 ± 0.0053 W/m/K | thermal conductivity ([2]; 357.76 K, w1 = 0.8003): 0.13 ± 0.0052 W/m/K

CCCCCCCCCC(=O)OC [methyl decanoate] + CCCO
thermal conductivity ([2]; 287.88 K, w1 = 0.2022): 0.1527 ± 0.0061 W/m/K | thermal conductivity ([2]; 287.9 K, w1 = 0.4008): 0.1495 ± 0.006 W/m/K | thermal conductivity ([2]; 287.9 K, w1 = 0.5998): 0.1481 ± 0.006 W/m/K | thermal conductivity ([2]; 287.98 K, w1 = 0.7993): 0.1462 ± 0.0059 W/m/K | thermal conductivity ([2]; 297.73 K, w1 = 0.2022): 0.1501 ± 0.006 W/m/K | thermal conductivity ([2]; 297.73 K, w1 = 0.7993): 0.1442 ± 0.0058 W/m/K | thermal conductivity ([2]; 297.77 K, w1 = 0.4008): 0.1473 ± 0.0059 W/m/K | thermal conductivity ([2]; 297.95 K, w1 = 0.5998): 0.1454 ± 0.0058 W/m/K | thermal conductivity ([2]; 307.71 K, w1 = 0.2022): 0.1479 ± 0.0059 W/m/K | thermal conductivity ([2]; 307.75 K, w1 = 0.4008): 0.1453 ± 0.0058 W/m/K | thermal conductivity ([2]; 307.77 K, w1 = 0.7993): 0.142 ± 0.0057 W/m/K | thermal conductivity ([2]; 307.81 K, w1 = 0.5998): 0.1435 ± 0.0058 W/m/K | thermal conductivity ([2]; 317.64 K, w1 = 0.2022): 0.1459 ± 0.0059 W/m/K | thermal conductivity ([2]; 317.69 K, w1 = 0.4008): 0.1426 ± 0.0057 W/m/K | thermal conductivity ([2]; 317.74 K, w1 = 0.7993): 0.1397 ± 0.0056 W/m/K | thermal conductivity ([2]; 317.81 K, w1 = 0.5998): 0.1414 ± 0.0057 W/m/K | thermal conductivity ([2]; 327.55 K, w1 = 0.2022): 0.1433 ± 0.0058 W/m/K | thermal conductivity ([2]; 327.56 K, w1 = 0.5998): 0.1394 ± 0.0056 W/m/K | thermal conductivity ([2]; 327.59 K, w1 = 0.4008): 0.1408 ± 0.0057 W/m/K | thermal conductivity ([2]; 327.67 K, w1 = 0.7993): 0.1374 ± 0.0055 W/m/K | thermal conductivity ([2]; 337.58 K, w1 = 0.2022): 0.1412 ± 0.0057 W/m/K | thermal conductivity ([2]; 337.62 K, w1 = 0.5998): 0.1371 ± 0.0055 W/m/K | thermal conductivity ([2]; 337.68 K, w1 = 0.7993): 0.1351 ± 0.0054 W/m/K | thermal conductivity ([2]; 337.72 K, w1 = 0.4008): 0.138 ± 0.006 W/m/K | thermal conductivity ([2]; 347.56 K, w1 = 0.2022): 0.1382 ± 0.0056 W/m/K | thermal conductivity ([2]; 347.64 K, w1 = 0.4008): 0.136 ± 0.005 W/m/K | thermal conductivity ([2]; 347.65 K, w1 = 0.5998): 0.1348 ± 0.0054 W/m/K | thermal conductivity ([2]; 347.65 K, w1 = 0.7993): 0.1328 ± 0.0053 W/m/K | thermal conductivity ([2]; 357.48 K, w1 = 0.2022): 0.1362 ± 0.0055 W/m/K | thermal conductivity ([2]; 357.48 K, w1 = 0.7993): 0.1299 ± 0.0052 W/m/K | thermal conductivity ([2]; 357.51 K, w1 = 0.5998): 0.1328 ± 0.0053 W/m/K | thermal conductivity ([2]; 357.57 K, w1 = 0.4008): 0.1341 ± 0.0054 W/m/K

O [water]
thermal conductivity ([1]; 299.55 K): 0.613 ± 0.025 W/m/K | thermal conductivity ([1]; 309.44 K): 0.6207 ± 0.025 W/m/K | thermal conductivity ([1]; 319.56 K): 0.6399 ± 0.026 W/m/K | thermal conductivity ([1]; 339.38 K): 0.653 ± 0.026 W/m/K | thermal conductivity ([1]; 349.82 K): 0.6704 ± 0.027 W/m/K
